The results in this text go back to article PMC8162404, “Proteomimetic surface fragments distinguish targets by function” (Chemical Science, 2020).

For one assay, the target named is T1, Gal-1 (Homo sapiens, UniProt P09382).
T1 construct: made in house; host or cells: E. coli BL21(DE3)
As to the kind of experiment: Pull-down assay with immobilized protein and LSM libraries. The class given is binding. As to conditions: H12 library; 1:1 binding assumed; read-out: Surface mapping KD (apparent). In outline:
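His-tagged protein immobilized on Co-NTA resin (64 µM) in 20 mM HEPES pH 7.4, 150 mM NaCl, equilibrated 30 min at room temperature with foldamer LSM sublibraries at equimolar total concentration. Unbound fractions quantified by HPLC-MS versus protein-free resin control; apparent KD assumes 1:1 binding.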

The target in a further assay is T2, S100B (Homo sapiens, UniProt P04271).
T2 construct: made in house; host or cells: Escherichia coli BL21(DE3)
T2 sequence (P04271 1-92): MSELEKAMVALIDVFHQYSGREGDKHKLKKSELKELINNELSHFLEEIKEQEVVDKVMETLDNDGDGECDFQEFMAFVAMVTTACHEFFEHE
The description is as above. It is filed as binding. As to conditions: H12 library; 1:1 binding assumed; read-out: Surface mapping KD (apparent). In outline: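 Buffers were HEPES pH 7.4 with 150 mM NaCl, plus 1 mM TCEP and 1 mM CaCl2 (50 mM HEPES) for S100A4 and S100B, 1 mM TCEP for Gal-1, and no additive for RecQ-WH. Immobilized protein at 64 µM was equilibrated 30 min with the LSM sublibrary, and unbound probes were measured by LC-MS.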

Molecules are shown by their SMILES.

T1 sequence (P09382 whole entry): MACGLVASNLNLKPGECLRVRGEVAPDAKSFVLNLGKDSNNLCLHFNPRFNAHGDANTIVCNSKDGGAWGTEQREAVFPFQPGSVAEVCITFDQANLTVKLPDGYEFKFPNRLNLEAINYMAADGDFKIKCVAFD

Consider `NC(=O)C[C@@H](CC(=O)N[C@H]1CCC[C@@H]1C(=O)N[C@H]1CCC[C@@H]1C(N)=O)NC(=O)[C@H]1CCC[C@@H]1NC(=O)[C@H]1CCC[C@@H]1NC(=O)C[C@H](Cc1c[nH]c2ccccc12)NC(=O)[C@H]1CCC[C@@H]1NC(=O)[C@H]1CCC[C@@H]1N` [H12 WN], for which the figures for the Kd on Gal-1 and at S100B were 270 µM and 55 µM, respectively.

As for `CSCC[C@@H](CC(=O)N[C@H]1CCC[C@@H]1C(=O)N[C@H]1CCC[C@@H]1C(=O)N[C@@H](CCC(=O)O)CC(=O)N[C@H]1CCC[C@@H]1C(=O)N[C@H]1CCC[C@@H]1C(N)=O)NC(=O)[C@H]1CCC[C@@H]1NC(=O)[C@H]1CCC[C@@H]1N` [H12 ME], the Kd worked out at 180 µM on Gal-1 and 417 µM at S100B.

For the compound `NCCCC[C@@H](CC(=O)N[C@H]1CCC[C@@H]1C(=O)N[C@H]1CCC[C@@H]1C(=O)N[C@@H](CO)CC(=O)N[C@H]1CCC[C@@H]1C(=O)N[C@H]1CCC[C@@H]1C(N)=O)NC(=O)[C@H]1CCC[C@@H]1NC(=O)[C@H]1CCC[C@@H]1N` [H12 KS], the Kd was found to be 298 µM at Gal-1 and 224 µM at S100B.

Consider `CC(C)[C@@H](CC(=O)N[C@H]1CCC[C@@H]1C(=O)N[C@H]1CCC[C@@H]1C(N)=O)NC(=O)[C@H]1CCC[C@@H]1NC(=O)[C@H]1CCC[C@@H]1NC(=O)C[C@H](Cc1ccc(O)cc1)NC(=O)[C@H]1CCC[C@@H]1NC(=O)[C@H]1CCC[C@@H]1N` [H12 YV], for which the Kd was determined as 364 µM at Gal-1 and 166 µM on S100B.

`CC(C)[C@@H](CC(=O)N[C@H]1CCC[C@@H]1C(=O)N[C@H]1CCC[C@@H]1C(N)=O)NC(=O)[C@H]1CCC[C@@H]1NC(=O)[C@H]1CCC[C@@H]1NC(=O)C[C@@H](NC(=O)[C@H]1CCC[C@@H]1NC(=O)[C@H]1CCC[C@@H]1N)C(C)C` [H12 VV]: the Kd at Gal-1 is 439 µM; on S100B it was 277 µM.

Take `NC(=O)[C@H]1CCC[C@@H]1NC(=O)[C@H]1CCC[C@@H]1NC(=O)C[C@H](CC(=O)O)NC(=O)[C@H]1CCC[C@@H]1NC(=O)[C@H]1CCC[C@@H]1NC(=O)C[C@H](Cc1ccc(O)cc1)NC(=O)[C@H]1CCC[C@@H]1NC(=O)[C@H]1CCC[C@@H]1N` [H12 YD]: the Kd at Gal-1 came out at 205 µM; at S100B it was 430 µM.

With `N=C(N)NCCC[C@@H](CC(=O)N[C@H]1CCC[C@@H]1C(=O)N[C@H]1CCC[C@@H]1C(N)=O)NC(=O)[C@H]1CCC[C@@H]1NC(=O)[C@H]1CCC[C@@H]1NC(=O)C[C@H](CCC(N)=O)NC(=O)[C@H]1CCC[C@@H]1NC(=O)[C@H]1CCC[C@@H]1N` [H12 QR], the values for the Kd on Gal-1 and on S100B were 431 µM and 321 µM, respectively.

Turning to `CC[C@H](C)[C@@H](CC(=O)N[C@H]1CCC[C@@H]1C(=O)N[C@H]1CCC[C@@H]1C(N)=O)NC(=O)[C@H]1CCC[C@@H]1NC(=O)[C@H]1CCC[C@@H]1NC(=O)C[C@H](C)NC(=O)[C@H]1CCC[C@@H]1NC(=O)[C@H]1CCC[C@@H]1N` [H12 AI], the Kd at Gal-1 is 436 µM; at S100B it was 348 µM.

On to `CC(C)C[C@@H](CC(=O)N[C@H]1CCC[C@@H]1C(=O)N[C@H]1CCC[C@@H]1C(N)=O)NC(=O)[C@H]1CCC[C@@H]1NC(=O)[C@H]1CCC[C@@H]1NC(=O)C[C@H](C)NC(=O)[C@H]1CCC[C@@H]1NC(=O)[C@H]1CCC[C@@H]1N` [H12 AL], for which the Kd worked out at 436 µM at Gal-1 and 348 µM on S100B.

With `NC(=O)[C@H]1CCC[C@@H]1NC(=O)[C@H]1CCC[C@@H]1NC(=O)C[C@H](CCC(=O)O)NC(=O)[C@H]1CCC[C@@H]1NC(=O)[C@H]1CCC[C@@H]1NC(=O)C[C@H](Cc1ccc(O)cc1)NC(=O)[C@H]1CCC[C@@H]1NC(=O)[C@H]1CCC[C@@H]1N` [H12 YE], the figures for the Kd on Gal-1 and at S100B were 198 µM and 459 µM, respectively.

As to `NC(=O)[C@H]1CCC[C@@H]1NC(=O)[C@H]1CCC[C@@H]1NC(=O)C[C@H](CCC(=O)O)NC(=O)[C@H]1CCC[C@@H]1NC(=O)[C@H]1CCC[C@@H]1NC(=O)C[C@H](Cc1ccccc1)NC(=O)[C@H]1CCC[C@@H]1NC(=O)[C@H]1CCC[C@@H]1N` [H12 FE], the Kd was 198 µM on Gal-1 and 391 µM at S100B.
